From patent publication US10813914B2, “Composition for controlling microsporidia in fishes and method for controlling microsporidia in fishes using same” (MARUHA NICHIRO CORPORATION, priority 2016, dated 2020)
Marks after values point to notes of the source that are not given here.

Key:
[1] = tested on: microsporidian cyst (beko cyst), beko disease; assay: Prevention test of beko disease in Mojako using fenbendazole (1-1); assay type: in vivo, “Mojako” (yellowtail larva); settings: 20 mg/kg Bw oral, 6 times/week, 6 weeks, 10 fishes tested; for Positive average per fish (average number of beko cyst per fish): p < 0.05 vs control
Experimental: 1-1: Prevention Test of Beko Disease in “Mojako” Using Fenbendazole
The prevention test was conducted according to the following procedure.
(§1) Test number: Live 1000 fishes (each initial body weight: 12 g)
(§2) Administration method: oral administration (feed together with spreading agent)
Drug used: fenbendazole (compound represented by the above-described formula (1))
(§3) Administration amount: 20 mg/kg Bw (20 mg per kg of fish body weight)
Interval between administration: 6 times/week
A sampling test was carried out according to the following procedure:
Six weeks after the start of administration, each 10 fishes of “Mojako” were taken out from each test group (a control group (the test was conducted under the same conditions as the above-described test conditions, except that the feed fed contained no fenbendazole) and a fenbendazole group), and each fish was cut into three pieces. It was then visually tested whether the microsporidian cyst (beko cyst) was found in the pieces. When the beko cyst was observed, it was judged as positive and the results were accumulated. Regarding the beko cyst that could be confirmed with the naked eye, the number was confirmed and the average infection number per one fish was determined.

[2] = tested on: microsporidian cyst (beko cyst), beko disease; assay: Prevention test of beko disease in Mojako using flubendazole (1-2); assay type: in vivo, “Mojako” (yellowtail larva); settings: 20 mg/kg Bw oral, 6 times/week, 4 weeks, 10 fishes tested; for Positive average per fish (average number of beko cyst per fish): p < 0.05 vs control
Experimental: 1-2. Prevention Test of Beko Disease in “Mojako” Using Flubendazole
A preliminary test was carried out according to the following procedure:
as §1, §2
Drug used: flubendazole (compound represented by the above-described formula (6))
as §3
(§4) Administration interval: 6 times/week
Sampling test procedure: same as above 1-1

[3] = tested on: microsporidian cyst (beko cyst), beko disease; assay: Prevention test of beko disease in Kanpachi using triclabendazole (1-8); assay type: in vivo, “Kanpachi” (great amberjack); settings: 40 mg/kg Bw oral, 6 times/week
Experimental: A Prevention test of the beko disease in “Kanpachi” was carried out using triclabendazole. The preliminary test was performed according to the following procedure:
Test number: Live 1000 fishes (each initial body weight: 50 g)
as §2
Drug used: triclabendazole (compound represented by the above-described formula (10))
Administration amount: 40 mg/kg Bw (40 mg per kg of fish body weight)
as §4
Sampling test procedure: same as in the above-described 1-1

microsporidia = settings: culture test, Non-Patent Documents 3 to 7; cited from earlier work
Glugea plecoglossi = settings: glugeosis of Ayu, Non-Patent Document 1; cited from earlier work
Heterosporis anguillarum = settings: beko disease of eels, Non-Patent Document 2; cited from earlier work

## COC(=O)Nc1nc2cc(Sc3ccccc3)ccc2[nH]1 [Fenbendazole, fenbendazole]
[1]
  Number of Beko cyst: 30
  Number of positive fishes: 6
  Positive average per fish (average number of beko cyst per fish): 3.5 ± 3.83
[1]; listed as fenbendazole
  Positive average per fish (average number of beko cyst per fish): 3.5±3.83

## COC(=O)Nc1nc2cc(C(=O)c3ccc(F)cc3)ccc2[nH]1 [Flubendazole, flubendazole]
[2]
  Number of Beko cyst: 10
  Number of positive fishes: 5
  Positive average per fish (average number of beko cyst per fish): 1.0 ± 1.1
[2]; listed as flubendazole
  Positive average per fish (average number of beko cyst per fish): 1.0±1.1

## CSc1nc2cc(Cl)c(Oc3cccc(Cl)c3Cl)cc2[nH]1 [Triclabendazole, triclabendazole]
[3]; 8 Weeks, p < 0.001, 40 mg/kg
  Positive fishes (beko cyst) / fishes sampled: 0/50***
[3]; 8 Weeks, p < 0.001, listed as triclabendazole, 40 mg/kg
  Positive fishes (beko cyst) / fishes sampled: significantly suppressed generation of the beko cyst
[3]; at administration start time
  Positive fishes (beko cyst) / fishes sampled: 0/20

## CO[C@@H]1[C@H](OC(=O)/C=C/C=C/C=C/C=C/C(=O)O)CC[C@]2(CO2)[C@H]1[C@@]1(C)O[C@@H]1CC=C(C)C [fumagillin]
microsporidia
  Antimicrobial activity against microsporidia: high antimicrobial activity
Glugea plecoglossi
  Therapeutic efficacy: high therapeutic efficacy was recognized
Heterosporis anguillarum
  Therapeutic efficacy: high therapeutic efficacy was recognized
